Test results published in patent US10154813B1, “Method and apparatus for patient skin color monitoring and drug efficacy measurement” (priority 2017, dated 2018).
“And” between values parts separate entries of the source, which are not always exact repeats. Equal values may be shown once.

Test system: microvascular endothelium (skin, right arm, anterior position) of Congestive Heart Failure patients
Test: Skin colorimetry (a, b, L) before and after application of “μ” in Congestive Heart Failure patients on Valsartan, monthly for 9 months
Format: in vivo, human
Set-up: key to a. Wet after “μ”: a = red/green colour coordinate (colorimeter); key to b (Wet): b = yellow/blue colour coordinate (colorimeter)
Details: for L (Wet) / a. Wet after “μ” / b (Wet): wet after μ; for L / a / b: baseline before μ
Source text: As stated above, one available quantitative color system is the L*a*b* color space or Hunter L/a/b color space, which can be visualized as a rectangular 3D coordinate system. L indicates lightness, a is the red/green coordinate, and b is the yellow/blue coordinate. L can have a value from 0 (black) to 100 (perfect reflection). The a and b axes have no numerical limits. Coordinate a is positive when red, and negative when green. Positive b is yellow, and negative b is blue. Colors can be described numerically using numerical values for L, a, and b. Differences between two colors can be quantified for each of the individual L/a/b values (ΔL, Δa, Δb). Overall differences between two colors can be derived numerically based on the three Δ values.
μ=drug applied before colorimeter and/or spectrophotometer measurements.
L1, a1, b1=Initial measurement.
L2, a2, b2=Measurement with μ applied. L2−L1=ΔLμ(L2 minus L1)=change in lightness and darkness(+=lighter,−=darker) a2−a1=Δaμ(a2 minus a1)=change in red and green(+=redder,−=greener) b2−b1=Δbμ(b2 minus b1)=change in yellow and blue(+=yellower,−=bluer)
With reference to the tables below and to FIG. 18, the three different patients (Patient A, Patient B, and Patient C) had new diagnosis of Congestive Heart Failure (CHF). Patient A, B, C have diastolic and systolic heart failure with an ejection fraction of 35% with normal coronary artery disease by angiography. All three patients were started on an angiotensin receptor blocker Valsartan and followed continuously every month for 9 months. The a, b, L were calculated before and after the “μ” has been applied shown in color red. The blue indicates the baseline. At the initiation of the CHF medication Valsartan, the patient has a normal response of the microvascular endothelium after the application of “μ” in the calculations of a, b, L. All colorimetric and spectrophotometric calculations are performed at the same location on the right arm, in the anterior position in all three patients continuously for 9 months. The titration of Valsartan was maximized in all three patients. […] This occurs because it is the desired effect of the CHF medication in the above patients over the period of 9 months. The current standard of care is to improve the heart function in CHF. The cardiologist lowers the ionotropic and chronotropic effect of the heart in CHF patients. The above methodology allows for the appropriate and desired effect in being able to titrate the medication and know how much medicine to administer to the patient by either decreasing or increasing the Valsartan dose. This is performed to achieve the necessary effect of pharmacotherapy with limiting the exacerbation of heart failure symptoms in such patients. It allows for healthcare providers to also know if the effects of the medications are adequate and they are in fact working appropriately on the microscopic endothelium level of the patient. As the months progressed in the patients above, the red line calculations indicate a decreased microvascular endothelial flow. This is evaluated by measuring a decrease in the a shift.
This correlates with a decrease in the ionotropic and chronotropic effect of the heart in these patients. This is the desired effect and outcome that the cardiologist is trying to achieve. The calculation of a, b, L, after “μ” is applied is objectively calculated in these CHF patients, allowing for the proper titration of maximum medication administration while limiting the side effects of the medications concurrently.

CCCCC(=O)N(Cc1ccc(-c2ccccc2-c2nnn[nH]2)cc1)[C@H](C(=O)O)C(C)C [Valsartan]
L (Wet) (Patient B, April 2017): 72.58 | a. Wet after “μ” (Patient B, April 2017): 3.03 | b (Wet) (Patient B, April 2017): 15.69 | L (Wet) (Patient B, December 2016): 73.59 | a. Wet after “μ” (Patient B, December 2016): 4.04 | b (Wet) (Patient B, December 2016): 15.27 | L (Wet) (Patient B, February 2017): 72.56 | a. Wet after “μ” (Patient B, February 2017): 3.3 | b (Wet) (Patient B, February 2017): 14.4 | L (Wet) (Patient B, January 2017): 74.23 | a. Wet after “μ” (Patient B, January 2017): 3.37 | b (Wet) (Patient B, January 2017): 15.38 | L (Wet) (Patient B, July 2017): 72.54 | a. Wet after “μ” (Patient B, July 2017): 2.25 | b (Wet) (Patient B, July 2017): 14.39 | L (Wet) (Patient B, June 2017): 72.47 | a. Wet after “μ” (Patient B, June 2017): 2.88 | b (Wet) (Patient B, June 2017): 15.29 | L (Wet) (Patient B, March 2017): 72.62 | a. Wet after “μ” (Patient B, March 2017): 3.29 | b (Wet) (Patient B, March 2017): 15.85 | L (Wet) (Patient B, May 2017): 73.47 | a. Wet after “μ” (Patient B, May 2017): 3.71 | b (Wet) (Patient B, May 2017): 15.54 | L (Wet) (Patient B, November 2016): 70.43 | a. Wet after “μ” (Patient B, November 2016): 4.89 and 4.79 | b (Wet) (Patient B, November 2016): 15.14 | L (Patient C, April 2017): 73.05 | a (Patient C, April 2017): 3.16 | b (Patient C, April 2017): 16.12 | L (Patient C, December 2016): 75.47 | a (Patient C, December 2016): 2.84 | b (Patient C, December 2016): 13.73 | L (Patient C, February 2017): 73.55 | a (Patient C, February 2017): 3.64 | b (Patient C, February 2017): 14.96 | L (Patient C, January 2017): 74.63 | a (Patient C, January 2017): 3.93 | b (Patient C, January 2017): 15.73 | L (Patient C, July 2017): 75.00 | a (Patient C, July 2017): 3.55 | b (Patient C, July 2017): 14.75 | L (Patient C, June 2017): 74.45 | a (Patient C, June 2017): 3.44 | b (Patient C, June 2017): 14.63 | L (Patient C, March 2017): 74.06 | a (Patient C, March 2017): 3.20 | b (Patient C, March 2017): 14.54 | L (Patient C, May 2017): 75.26 | a (Patient C, May 2017): 3.50 | b (Patient C, May 2017): 15.22 | L (Patient C, November 2016): 73.84 | a (Patient C, November 2016): 3.35 | b (Patient C, November 2016): 14.01 | L (Wet) (Patient C, April 2017): 72.89 | a. Wet after “μ” (Patient C, April 2017): 2.95 | b (Wet) (Patient C, April 2017): 17.26 | L (Wet) (Patient C, December 2016): 72.57 | a. Wet after “μ” (Patient C, December 2016): 4.84 | b (Wet) (Patient C, December 2016): 14.8 | L (Wet) (Patient C, February 2017): 72.41 | a. Wet after “μ” (Patient C, February 2017): 3.07 | b (Wet) (Patient C, February 2017): 15.66 | L (Wet) (Patient C, January 2017): 74.12 | a. Wet after “μ” (Patient C, January 2017): 3.18 | b (Wet) (Patient C, January 2017): 15.31 | L (Wet) (Patient C, July 2017): 74.72 | a. Wet after “μ” (Patient C, July 2017): 2.3 | b (Wet) (Patient C, July 2017): 14.39 | L (Wet) (Patient C, June 2017): 72.13 | a. Wet after “μ” (Patient C, June 2017): 2.75 | b (Wet) (Patient C, June 2017): 15.6 | L (Wet) (Patient C, March 2017): 73.55 | a. Wet after “μ” (Patient C, March 2017): 3.05 | b (Wet) (Patient C, March 2017): 13.67 | L (Wet) (Patient C, May 2017): 73.69 | a. Wet after “μ” (Patient C, May 2017): 3.1 | b (Wet) (Patient C, May 2017): 15.17 | L (Wet) (Patient C, November 2016): 71.42 | a. Wet after “μ” (Patient C, November 2016): 4.99 | b (Wet) (Patient C, November 2016): 14.01 | effect on flow to the microvascular circulation of the endothelium (a shift after μ) (Patients A, B, C, at rest, over 9 months, maximized titration): a decrease in the flow to the microvascular circulation of the endothelium at rest
